Data: PubChem BioAssay AID2305 (GlaxoSmithKline (GSK), 2010)

Tested on: P. falciparum 3D7 growth, pLDH absorbance
Experiment: blood-stage malaria parasite growth potency – strain 3D7, dose response (AID 2305)

| SMILES | IC50 |
| --- | --- |
| CN(C)CCOc1cc(NC(=O)/C=C/c2cccc3ccccc23)ccc1I | 1260 nM |
| Cc1nc2ccccc2n1C1C[C@H]2CC[C@@H](C1)N2Cc1nccn1-c1ccccc1 (stereo not given in full) | 370 nM |
| Cc1onc(-c2ccccc2Cl)c1C(=O)Nc1cc(Cl)c(Cl)cc1Cl | 1180 nM |
| Cn1cncc1CNCc1ccc(-c2cccc(-c3nc4ccccc4[nH]3)c2)cc1 | 230 nM |
| CN1CCN(CCCN(Cc2csc(-c3ccc(CNCc4ccccc4)cc3)n2)C(=O)Nc2ccc3ccccc3c2)CC1 | 1100 nM |
| c1ccc2c(CNc3ccnc(NCc4cccc5ccccc45)n3)cccc2c1 | 560 nM |
| COc1ccc(CN(C)CCCc2ccc(NC(=O)c3cc4ccccc4[nH]3)cc2)cc1OC | 730 nM |
| CCCc1ccccc1OCC(O)CN(C1CCCC1)C1CCCC1 (stereo not given) | 470 nM |
| Clc1cc(Nc2ncnc3sc(C#Cc4ncc[nH]4)cc23)ccc1OCc1ccccn1 | 1110 nM |
| COc1ccc(Nc2nccc(N3CCC(NC(=O)C(C)c4ccc(Cl)cc4)CC3)n2)cc1 (stereo not given) | 930 nM |
| O=C(Nc1cc(F)cc(F)c1)N1CCOC(CCN2CCC(c3ccccc3)CC2)(c2ccc(Cl)c(Cl)c2)C1 (stereo not given) | 470 nM |
| Cc1ccn2c(C(=O)N3CCN(c4cccc5c4nc(-c4ccoc4)n5Cc4ccccn4)CC3)c(C)nc2c1 | 200 nM |
| CCCCCCCN(CCCCCCC)CCNc1cc(C)nc2ccccc12 | 340 nM |
| Cc1ccc2c(c1C)NC(=O)C21NN=C(c2ccccc2)S1 (stereo not given) | 750 nM |
| C[C@@H](Oc1cc(-n2cnc3ccc(NC(=O)CCN4CCCCC4)cc32)sc1C(N)=O)c1ccccc1Cl | 990 nM |
| CO/C(=C\C=C\c1cc2cc(Cl)c(Cl)cc2[nH]1)C(=O)Nc1ccc(NCCN(C)C)nc1 | 770 nM |
| COc1ccccc1CNc1nc(Nc2ccccc2C)nc2ccccc12 | 810 nM |
| c1ccc2cc3c(NCCN4CCOCC4)ccnc3cc2c1 | 170 nM |
| Cc1cccc2[nH]c(-c3ccc(-c4cccc(NC(=O)C(=O)c5cccn5C)c4)cc3)nc12 | 980 nM |
| C[C@@H](Oc1cc(-n2cnc3cc(SCCN4CCN(C)CC4)ccc32)sc1C(N)=O)c1ccccc1Cl | 510 nM |

| SMILES | IC50 |
| --- | --- |
| COc1ccc(C(=O)Nc2ccc(-c3nc4ccc(C)cc4[nH]3)cc2)cc1OC | 760 nM |
| CCn1c(SCc2ccccc2)nc2c1c(=O)[nH]c(=O)n2C | 240 nM |
| O=C(CN1CCC2(CCC1=O)CC(=O)c1ccccc1O2)NCCN1CCOCC1 (stereo not given) | 220 nM |
| COc1ccccc1C1CC(c2ccccc2)=NN1C(=O)c1ccco1 (stereo not given) | 400 nM |
| Oc1ccc2[nH]cc(C3=CCN(CCc4ccccc4)CC3)c2c1 | 310 nM |
| Cc1c(CCNC(=O)CCCN2CC(C)CC(C)C2)c2ccccc2n1C (stereo not given) | 1270 nM |
| O=C(OCc1ccccc1)N1CCc2c([nH]c3ccccc23)C1CCC(F)(F)F (stereo not given) | 420 nM |
| CN1CCC(NCc2ccc(-c3ccc(C(F)(F)F)cc3)cc2)CC1 | 800 nM |
| COc1ccccc1N1CCN(C(C(=O)NCc2cccc(F)c2)c2ccc(C)cc2)CC1 (stereo not given) | 890 nM |
| O=C(/C=C/c1ccc(Cl)c(Cl)c1)NCCCCCN1CCCC(C(=O)Nc2ccc(Cl)c(Cl)c2)C1 (stereo not given) | 780 nM |
| CCOCCCn1c(=N)c(C(=O)NC(C)c2ccccc2)cc2c(=O)n3cccc(C)c3nc21 (stereo not given) | 1200 nM |
| O=C(NCC1CCN(C/C=C/c2ccccc2)CC1)Nc1ccc(Oc2ccccc2)cc1 | 1040 nM |
| Cc1cccc(CN2CCCC3(CCN(Cc4ccccc4O)C3)C2)c1 (stereo not given) | 800 nM |
| O=C(Nc1ccc(Oc2ccccc2)cc1)N1CCC(CN2CCC(c3c[nH]c4ccccc34)CC2)CC1 | 610 nM |
| O=C(/C=C/c1ccc(C(F)(F)F)cc1)NCCCCCN1CCCN(C(=O)Nc2ccc(Cl)c(Cl)c2)CC1 | 420 nM |
| Cc1cnc(NC(=O)c2cn(-c3ccccc3)nc2-c2cccs2)s1 | 950 nM |
| NC(N)=NC(=O)Nc1cc(Br)c(Br)c(Br)c1 | 810 nM |
| O=C(NCC1CCN(Cc2ccc3c(c2)OCCO3)C1)c1cc(-c2cccc(C(F)(F)F)c2)cs1 (stereo not given) | 980 nM |
| C=CCN1C(=O)CN(S(=O)(=O)c2ccc(-n3nc(C)cc3C)cc2)C1=S | 940 nM |
| COc1ccc(CN(C)CCCc2ccc(NC(=O)c3cccc4c(=O)c5ccccc5[nH]c34)cc2)cc1OC | 1370 nM |
